From patent US6875451B2, “Compositions and methods for the treatment of primary and metastatic neoplastic diseases using arsenic compounds” (PolaRx Biopharmaceuticals Inc., priority 1997, dated 2005)

Assays:
UACC-257 = assay: SRB growth assay, 6 days exposure, melanoma; type: cell-based; conditions: UACC-257, 6 days
Method: (§1) Arsenic trioxide (1 mg/ml, 10 mg/ampoule, manufactured by Taylor Pharmaceuticals, Decatur, Ill.) was tested at five concentrations each at 10-fold dilutions, i.e., 10^−5, 10^−6, 10^−7, 10^−8 and 10^−9 μg/ml.
(§2) The in vitro tests were performed by incubating the test cells in the presence of the indicated concentration of arsenic trioxide under standard culture conditions for a designated period of time, which is followed by a sulforhodamine B (SRB) protein assay to estimate cell viability or growth. The cell lines are organized into subpanels according to the origin of the cell lines, e.g., leukemia, breast cancer, etc. A description of the cell lines and method of testing is described in Monk et al. (1997, Anticancer Drug Des. 12:533-41) and Weinstein et al., (1997, Science 275:343-9), which are incorporated herein in their entirety.
(§3) The measurement of an effect is expressed in Percentage Growth (PG). The measured effect of the compound on a cell line is calculated according to one or the other of the following two expressions: If (Mean ODtest−Mean ODzero)≧0. then PG=100×(Mean ODtest−Mean ODzero)/(Mean ODctrl−Mean ODzero) If (Mean ODtest−Mean ODzero)<0. then PG=100×(Mean ODtest−Mean ODzero)/(Mean ODzero where: • Mean ODzero=the average of optical density measurements of SRB-derived color just before exposure of cells to the test compounds; • Mean ODtest=the average of optical density measurements of SRB-derived color after exposure of cells to the test compound for a designated period of time; and • Mean ODctrl=the average of optical density measurements of SRB-derived color after with no exposure of cells to the test compound for a designated period of time
(§4) The first two columns describe the subpanel (e.g., leukemia) and cell line (e.g., CCRF-CEM) involved. The next two columns list the Mean ODzero and Mean ODctrl; the next five columns list the Mean ODtest for each of five different concentrations. Each concentration is expressed as the log10 (molar or μg/ml). The next five columns list the calculated PGs for each concentration. The response parameters GI50, TGI and LC50 are interpolated values representing the concentrations at which the PG is +50, 0, and −50, respectively. Sometimes these response parameters cannot be obtained by interpolation. If, for instance, all of the PGs in a given row exceed +50, then none of the three parameters can be obtained by interpolation. In such a case, the value given for each response parameter is the highest concentration tested and is preceded by a “>” sign. This practice is extended similarly to the other possible situations where a response parameter cannot be obtained by interpolation.
(§5) In the first set, the cells from 56 different cancer cell lines were exposed to five concentrations of arsenic trioxide continuously for two days prior to performing the SRB assay. In the second set, the cells from 50 different cell lines (a subset of the first 56 cell lines, plus the renal cancer cell line 786-0) were exposed continuously for six days prior to the SRB assay.

SK-MEL-2 = assay: SRB growth assay, 6 days exposure, melanoma; type: cell-based; conditions: SK-MEL-2, 6 days
Method: as §1, §2, §3, §4, §5

LOX IMVI = assay: SRB growth assay, 6 days exposure, melanoma; type: cell-based; conditions: LOX 1MVI
Method: as §1, §2, §3, §4, §5

MALMI-3M = assay: SRB growth assay, 6 days exposure, melanoma; type: cell-based
Method: as §1, §2, §3, §4, §5

SK-MEL-5 = assay: SRB growth assay, 6 days exposure, melanoma; type: cell-based; conditions: SK-MEL-5, 6 days
Method: as §1, §2, §3, §4, §5

SK-MEL-28 = assay: SRB growth assay, 6 days exposure, melanoma; type: cell-based; conditions: SK-MEL-28, 6 days
Method: as §1, §2, §3, §4, §5

UACC-62 = assay: SRB growth assay, 6 days exposure, melanoma; type: cell-based; conditions: UACC-62, 6 days
Method: as §1, §2, §3, §4, §5

[1] = test system: NB4 cells, an APL cell line; conditions: in vitro; cited from earlier work
SF-295 = assay: SRB growth assay, 6 days exposure, CNS cancer; type: cell-based; conditions: SF-295, 6 days
Method: as §1, §2, §3, §4, §5

Substance: arsenic trioxide
- TGI (UACC-257): 5.83E−06
- Mean Optical Densities (UACC-257; Log 10 Concentration −4.9): 0.039
- Percent Growth (UACC-257; Log 10 Concentration −4.9): −27%
- Mean Optical Densities (UACC-257; Log 10 Concentration −5.9): 0.504
- Percent Growth (UACC-257; Log 10 Concentration −5.9): 54%
- Mean Optical Densities (UACC-257; Log 10 Concentration −6.9): 0.832
- Percent Growth (UACC-257; Log 10 Concentration −6.9): 94%
- Mean Optical Densities (UACC-257; Log 10 Concentration −7.9): 0.857
- Percent Growth (UACC-257; Log 10 Concentration −7.9): 97%
- Mean Optical Densities (UACC-257; Log 10 Concentration −8.9): 0.872
- Percent Growth (UACC-257; Log 10 Concentration −8.9): 99%
- CC50 (UACC-257; read-out: LC50 (the source's name)): > 12.6 µM
- TGI (SK-MEL-2): 5.63E−07
- Percent Growth (SK-MEL-2; Log 10 Concentration −4.9): −100%
- Mean Optical Densities (SK-MEL-2; Log 10 Concentration −5.9): 0.128
- Percent Growth (SK-MEL-2; Log 10 Concentration −5.9): −40%
- Mean Optical Densities (SK-MEL-2; Log 10 Concentration −6.9): 0.426
- Percent Growth (SK-MEL-2; Log 10 Concentration −6.9): 74%
- Mean Optical Densities (SK-MEL-2; Log 10 Concentration −7.9): 0.462
- Percent Growth (SK-MEL-2; Log 10 Concentration −7.9): 87%
- Mean Optical Densities (SK-MEL-2; Log 10 Concentration −8.9): 0.491
- Percent Growth (SK-MEL-2; Log 10 Concentration −8.9): 97%
- TGI (LOX IMVI): 1.32E−07
- Mean Optical Densities (LOX IMVI; Log 10 Concentration −4.9): −0.001
- Percent Growth (LOX IMVI; Log 10 Concentration −4.9): −100%
- Mean Optical Densities (LOX IMVI; Log 10 Concentration −5.9): 0.002
- Percent Growth (LOX IMVI; Log 10 Concentration −5.9): −88%
- Mean Optical Densities (LOX IMVI; Log 10 Concentration −6.9): 0.053
- Percent Growth (LOX IMVI; Log 10 Concentration −6.9): 2%
- Mean Optical Densities (LOX IMVI; Log 10 Concentration −7.9): 1.666
- Percent Growth (LOX IMVI; Log 10 Concentration −7.9): 77%
- Mean Optical Densities (LOX IMVI; Log 10 Concentration −8.9): 2.000
- Percent Growth (LOX IMVI; Log 10 Concentration −8.9): 93%
- TGI (MALMI-3M): 2.78E−06
- Mean Optical Densities (MALMI-3M; Log 10 Concentration −4.9): 0.005
- Percent Growth (MALMI-3M; Log 10 Concentration −4.9): −96%
- Mean Optical Densities (MALMI-3M; Log 10 Concentration −5.9): 0.383
- Percent Growth (MALMI-3M; Log 10 Concentration −5.9): 50%
- Mean Optical Densities (MALMI-3M; Log 10 Concentration −6.9): 0.823
- Percent Growth (MALMI-3M; Log 10 Concentration −6.9): 132%
- Mean Optical Densities (MALMI-3M; Log 10 Concentration −7.9): 0.595
- Percent Growth (MALMI-3M; Log 10 Concentration −7.9): 90%
- Mean Optical Densities (MALMI-3M; Log 10 Concentration −8.9): 0.702
- Percent Growth (MALMI-3M; Log 10 Concentration −8.9): 110%
- TGI (SK-MEL-5): 4.07E−06
- Mean Optical Densities (SK-MEL-5; Log 10 Concentration −4.9): 0.013
- Percent Growth (SK-MEL-5; Log 10 Concentration −4.9): −93%
- Mean Optical Densities (SK-MEL-5; Log 10 Concentration −5.9): 1.846
- Percent Growth (SK-MEL-5; Log 10 Concentration −5.9): 96%
- Mean Optical Densities (SK-MEL-5; Log 10 Concentration −6.9): 1.929
- Percent Growth (SK-MEL-5; Log 10 Concentration −6.9): 101%
- Mean Optical Densities (SK-MEL-5; Log 10 Concentration −7.9): 1.864
- Percent Growth (SK-MEL-5; Log 10 Concentration −7.9): 97%
- Mean Optical Densities (SK-MEL-5; Log 10 Concentration −8.9): 1.935
- Percent Growth (SK-MEL-5; Log 10 Concentration −8.9): 102%
- TGI (SK-MEL-28): 1.86E−06
- Percent Growth (SK-MEL-28; Log 10 Concentration −4.9): −100%
- Mean Optical Densities (SK-MEL-28; Log 10 Concentration −5.9): 0.488
- Percent Growth (SK-MEL-28; Log 10 Concentration −5.9): 20%
- Mean Optical Densities (SK-MEL-28; Log 10 Concentration −6.9): 1.797
- Percent Growth (SK-MEL-28; Log 10 Concentration −6.9): 88%
- Mean Optical Densities (SK-MEL-28; Log 10 Concentration −7.9): 1.906
- Percent Growth (SK-MEL-28; Log 10 Concentration −7.9): 94%
- Mean Optical Densities (SK-MEL-28; Log 10 Concentration −8.9): 2.012
- Percent Growth (SK-MEL-28; Log 10 Concentration −8.9): 99%
- TGI (UACC-62): 2.27E−06
- Mean Optical Densities (UACC-62; Log 10 Concentration −4.9): 0.001
- Percent Growth (UACC-62; Log 10 Concentration −4.9): −98%
- Mean Optical Densities (UACC-62; Log 10 Concentration −5.9): 0.539
- Percent Growth (UACC-62; Log 10 Concentration −5.9): 34%
- Mean Optical Densities (UACC-62; Log 10 Concentration −6.9): 1.409
- Percent Growth (UACC-62; Log 10 Concentration −6.9): 92%
- Mean Optical Densities (UACC-62; Log 10 Concentration −7.9): 1.460
- Percent Growth (UACC-62; Log 10 Concentration −7.9): 95%
- Mean Optical Densities (UACC-62; Log 10 Concentration −8.9): 1.546
- Percent Growth (UACC-62; Log 10 Concentration −8.9): 101%
- apoptosis (programmed cell death) [1]: induced apoptosis
- TGI (SF-295): 3.25E−06
- Mean Optical Densities (SF-295; Log 10 Concentration −4.9): 0.010
- Percent Growth (SF-295; Log 10 Concentration −4.9): −69%
- Mean Optical Densities (SF-295; Log 10 Concentration −5.9): 0.659
- Percent Growth (SF-295; Log 10 Concentration −5.9): 49%
- Mean Optical Densities (SF-295; Log 10 Concentration −6.9): 1.244
- Percent Growth (SF-295; Log 10 Concentration −6.9): 94%
- Mean Optical Densities (SF-295; Log 10 Concentration −7.9): 1.279
- Percent Growth (SF-295; Log 10 Concentration −7.9): 97%
- Mean Optical Densities (SF-295; Log 10 Concentration −8.9): 1.284
- Percent Growth (SF-295; Log 10 Concentration −8.9): 97%
